Results on two compounds are retold here after PMC12036578, “Expression and molecular characterization of an intriguing hyaluronan synthase (HAS) from the symbiont “Candidatus Mycoplasma liparidae” in snailfish” (PeerJ, 2025).

The subject of test [1] is snHAS. Briefly: HA formation by HABP-HRP HA detection kit (TMB, OD450), Michaelis-Menten fit. The class given is biochemical, Candidatus Mycoplasma liparidae. The conditions noted are these: 15 mM MgCl2, 50 mM PBS, 5 mM DTT, 37 °C, 30 µM enzyme, read-out: snHASE173D. From the text: HA formation by HABP-HRP HA detection kit (TMB, OD450), Michaelis-Menten fit on snHAS
For test [2], the system named is snHAS. The description is as above. The conditions noted are these: 15 mM MgCl2, 50 mM PBS, 5 mM DTT, 37 °C, 30 µM enzyme. The class given is biochemical, Candidatus Mycoplasma liparidae.

Each structure is given as a SMILES string. Where two headings read alike, the source gives them in different places.

Consider `CC(=O)N[C@H]1[C@@H](OP(=O)(O)OP(=O)(O)OC[C@H]2O[C@@H](n3ccc(=O)[nH]c3=O)[C@H](O)[C@@H]2O)O[C@H](CO)[C@@H](O)[C@@H]1O` [UDP-GlcNAc], for which the Km in the test with snHAS [1] (1 mM UDP-GlcA fixed) came to 410 ± 70 µM; in the test with snHAS [2] (1 mM UDP-GlcA fixed) it was 258 ± 45 µM.
Turning to `O=C(O)[C@H]1O[C@H](OP(=O)(O)OP(=O)(O)OC[C@H]2O[C@@H](n3ccc(=O)[nH]c3=O)[C@H](O)[C@@H]2O)[C@H](O)[C@@H](O)[C@@H]1O` [UDP-GlcA], the Km in the test with snHAS [1] (1 mM UDP-GlcNAc fixed) stood at 210 ± 20 µM; with snHAS [2] (1 mM UDP-GlcNAc fixed) it was 39 ± 5 µM.
